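Step 1: Grow cells in 96-well plates. Step 2: Expose to compound for 48 hours at 5 concentrations. Step 3: Interpolate endpoints linearly; if unreached, use highest concentration. GI50 marks 50% less growth. The concentration for full growth arrest is given as TGI.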
Experiments:
Test in all cases: NCI-60 cell line screen, 48 h
OVCAR-4 ovarian = system: OVCAR-4 ovarian
HOP-92 NSCLC = system: HOP-92 NSCLC
SF-539 CNS = system: SF-539 CNS
OVCAR-8 ovarian = system: OVCAR-8 ovarian
HCT-116 colon = system: HCT-116 colon
KM12 colon = system: KM12 colon
HCT-15 colon = system: HCT-15 colon
OVCAR-3 ovarian = system: OVCAR-3 ovarian
ACHN renal = system: ACHN renal
CCRF-CEM leukemia = system: CCRF-CEM leukemia

In the case of `CCOC(=O)C1=C(O)CSC1=Nc1ccccc1`, the TGI (OVCAR-4 ovarian) was over 100 µM, the TGI (HOP-92 NSCLC) was over 100 µM and the TGI (SF-539 CNS) was over 100 µM. The TGI (OVCAR-8 ovarian) was over 100 µM, the TGI (HCT-116 colon) was over 100 µM and the TGI (KM12 colon) was over 100 µM. The TGI (HCT-15 colon) was over 100 µM, the TGI (OVCAR-3 ovarian) was over 100 µM and the TGI (ACHN renal) was over 100 µM.

In the case of `Cn1cc(C2=C(c3cccnc3)C(=O)NC2=O)c2ccccc21`, the GI50 (CCRF-CEM leukemia) was 10.5 µM, the TGI (CCRF-CEM leukemia) was over 25 µM and the GI50 (OVCAR-4 ovarian) was over 22.2 µM. The TGI (OVCAR-4 ovarian) was over 25 µM, the GI50 (SF-539 CNS) was 11.4 µM and the TGI (SF-539 CNS) was over 25 µM. For the same compound, the GI50 (OVCAR-8 ovarian) was over 25 µM, the TGI (OVCAR-8 ovarian) was over 25 µM and the GI50 (HCT-116 colon) was 15 µM. The TGI (HCT-116 colon) was over 25 µM, the GI50 (KM12 colon) was over 20.6 µM and the TGI (KM12 colon) was over 25 µM. For the same compound, the GI50 (HCT-15 colon) was over 25 µM, the TGI (HCT-15 colon) was over 25 µM and the GI50 (OVCAR-3 ovarian) was 15 µM. The TGI (OVCAR-3 ovarian) was over 25 µM, the GI50 (ACHN renal) was 14.1 µM and the TGI (ACHN renal) was over 25 µM.

For `Oc1ccc(O)c(-c2cc(-c3ccccc3)nn2-c2ccccc2)c1`, the GI50 (HOP-92 NSCLC) was 88.9 µM, the TGI (HOP-92 NSCLC) was over 100 µM and the GI50 (OVCAR-8 ovarian) was 17.2 µM. It also gave a TGI (OVCAR-8 ovarian) of 74 µM, a GI50 (HCT-116 colon) of 9.71 µM and a TGI (HCT-116 colon) of 21.8 µM. For the same compound, the GI50 (KM12 colon) was 19.6 µM, the TGI (KM12 colon) was over 100 µM and the GI50 (HCT-15 colon) was 17 µM. For the same compound, the TGI (HCT-15 colon) was 42.6 µM, the GI50 (OVCAR-3 ovarian) was 22.8 µM and the TGI (OVCAR-3 ovarian) was over 100 µM. The GI50 (ACHN renal) was 14.4 µM and the TGI (ACHN renal) was 29.7 µM.

Compound `Cc1c(C(=O)C/C(=N/NC(=O)C[n+]2ccccc2)C(=O)Nc2ccccc2)[n+](=O)c2ccccc2n1O` has a TGI (CCRF-CEM leukemia) of over 100 µM, a TGI (OVCAR-4 ovarian) of over 100 µM and a TGI (SF-539 CNS) of over 100 µM. The TGI (OVCAR-8 ovarian) was over 100 µM, the TGI (HCT-116 colon) was over 100 µM and the TGI (KM12 colon) was over 100 µM. The TGI (HCT-15 colon) was over 100 µM, the TGI (OVCAR-3 ovarian) was over 100 µM and the TGI (ACHN renal) was over 100 µM.

For `O=C(c1cc2ccccc2o1)N(Cc1ccccc1)c1ccccc1`, the TGI (CCRF-CEM leukemia) was 37.6 µM, the TGI (HOP-92 NSCLC) was 44 µM and the TGI (OVCAR-8 ovarian) was 66.2 µM. The TGI (HCT-116 colon) was 31.9 µM, the TGI (KM12 colon) was 46.6 µM and the TGI (HCT-15 colon) was 41 µM. For the same compound, the TGI (OVCAR-3 ovarian) was 41.2 µM and the TGI (ACHN renal) was over 100 µM.

`COc1ccc(-c2nn(-c3cccc(NC(=O)c4ccc5c(c4)OCCO5)c3)cc2-c2ccncc2)cc1Cl` was tested, and the GI50 (CCRF-CEM leukemia) was 1.68 µM, the TGI (CCRF-CEM leukemia) was 10.3 µM and the GI50 (OVCAR-4 ovarian) was 4.39 µM. For the same compound, the TGI (OVCAR-4 ovarian) was over 100 µM, the GI50 (HOP-92 NSCLC) was 0.335 µM and the TGI (HOP-92 NSCLC) was 4.99 µM. It also gave a GI50 (SF-539 CNS) of 1.41 µM, a TGI (SF-539 CNS) of 3.48 µM and a GI50 (OVCAR-8 ovarian) of 2.47 µM. It also gave a TGI (OVCAR-8 ovarian) of over 100 µM, a GI50 (HCT-116 colon) of 2.03 µM and a TGI (HCT-116 colon) of 14.5 µM. For the same compound, the GI50 (KM12 colon) was 1.39 µM, the TGI (KM12 colon) was 6.76 µM and the GI50 (HCT-15 colon) was 1.61 µM. The TGI (HCT-15 colon) was 22.5 µM, the GI50 (ACHN renal) was 3.82 µM and the TGI (ACHN renal) was over 100 µM.

`C=CC[P+](c1ccccc1)(c1ccccc1)c1ccccc1` gave a GI50 (CCRF-CEM leukemia) of 3.4 µM, a TGI (CCRF-CEM leukemia) of over 100 µM and a GI50 (OVCAR-4 ovarian) of 2.84 µM. For the same compound, the TGI (OVCAR-4 ovarian) was over 100 µM, the GI50 (SF-539 CNS) was 8.42 µM and the TGI (SF-539 CNS) was over 100 µM. The GI50 (OVCAR-8 ovarian) was 3.25 µM, the TGI (OVCAR-8 ovarian) was over 100 µM and the GI50 (HCT-116 colon) was 3.48 µM. For the same compound, the TGI (HCT-116 colon) was over 100 µM, the GI50 (KM12 colon) was 1.46 µM and the TGI (KM12 colon) was over 100 µM. The GI50 (HCT-15 colon) was over 100 µM, the TGI (HCT-15 colon) was over 100 µM and the GI50 (OVCAR-3 ovarian) was 1.99 µM. It also gave a TGI (OVCAR-3 ovarian) of over 100 µM, a GI50 (ACHN renal) of over 100 µM and a TGI (ACHN renal) of over 100 µM.

`O=C1N(c2ccccc2)C(=O)C2(SC=NN2Cc2ccccc2)N1c1ccccc1` (configuration not stated) was tested, and the TGI (CCRF-CEM leukemia) was over 100 µM, the TGI (OVCAR-4 ovarian) was over 100 µM and the TGI (HOP-92 NSCLC) was over 100 µM. The TGI (SF-539 CNS) was over 100 µM, the TGI (OVCAR-8 ovarian) was over 100 µM and the TGI (HCT-116 colon) was over 100 µM. It also gave a TGI (KM12 colon) of over 100 µM, a TGI (OVCAR-3 ovarian) of over 100 µM and a TGI (ACHN renal) of over 100 µM.

Compound `COc1ccc(C(=O)C(C(=O)C(=O)Nc2ccc(Cl)c(Cl)c2)c2ccc(OC)cc2)cc1` (configuration not stated) has a TGI (OVCAR-4 ovarian) of over 100 µM, a TGI (HOP-92 NSCLC) of over 100 µM and a TGI (SF-539 CNS) of over 100 µM. The TGI (OVCAR-8 ovarian) was over 100 µM, the TGI (HCT-116 colon) was over 100 µM and the TGI (KM12 colon) was over 100 µM. It also gave a TGI (HCT-15 colon) of over 100 µM, a TGI (OVCAR-3 ovarian) of over 100 µM and a TGI (ACHN renal) of over 100 µM.

— PubChem BioAssay (NCI)
